The subject of series [1] is DSS colitis. In kind it is in vivo, C57BL/6J mice. To be noted: mouse. The procedure: C57BL/6J (Jackson Lab) male mice weighing 25±2 g at 9 weeks of age were used, and all the mice were fed freely by providing standard experimental feed. The compound of Example 53 and LX1606 were dissolved in 0.25% methylcellulose (MC) solution, which was orally administered to mice at the dose of 100 and 300 mg/kg/time using a 1 mL syringe. The compound of Example 53 and LX1606 were administered for 7 days, starting one day prior to dextran sulfate sodium (DSS) administration. Before and after the administration, the samples of colon tissue were collected from each mouse treated with the compound of Example 53 or the control drug (LX1606) to confirm clinical symptoms. Data are expressed as mean±standard error of mean (SEM), and all statistical analyses were performed using GraphPad Prism (version 5.0, GraphPad Software, La Jolla, Calif.). Differences in mean between groups were statistically analyzed by two-way analysis of variance (ANOVA) and multiple comparison tests to reveal the differences between the experimental groups. […]
Colon permeability was measured to confirm if the compound of the present invention affected the amelioration of inflammatory bowel disorder. […] The importance of the intestinal epithelial layer was measured by the changes in intercellular permeability and intimate junction function observed in inflammatory bowel disease (IBD) and colorectal cancer. […]

Series [2] deals with TPH1 (tryptophan hydroxylase 1) (Homo sapiens (Human), UniProt P17752). Briefly: TPH1 inhibitor screening assay kit (BPS Bioscience), fluorescence. In kind it is biochemical. To be noted: TPH1 enzyme, 4 hours at 4° C., ex 300 nm / em 360 nm. As for the experimental part: In order to confirm the inhibitory effect of the compound represented by formula 1 according to the present invention on the tryptophan hydroxylase activity, it was measured using a TPH1 (tryptophan hydroxylase 1) inhibitor screening assay kit (BPS Bioscience, Catalog #72053). The TPH1 inhibitor screening assay kit was used according to the manufacturer's manual.
Sequence of TPH1 (tryptophan hydroxylase 1) (P17752 whole entry): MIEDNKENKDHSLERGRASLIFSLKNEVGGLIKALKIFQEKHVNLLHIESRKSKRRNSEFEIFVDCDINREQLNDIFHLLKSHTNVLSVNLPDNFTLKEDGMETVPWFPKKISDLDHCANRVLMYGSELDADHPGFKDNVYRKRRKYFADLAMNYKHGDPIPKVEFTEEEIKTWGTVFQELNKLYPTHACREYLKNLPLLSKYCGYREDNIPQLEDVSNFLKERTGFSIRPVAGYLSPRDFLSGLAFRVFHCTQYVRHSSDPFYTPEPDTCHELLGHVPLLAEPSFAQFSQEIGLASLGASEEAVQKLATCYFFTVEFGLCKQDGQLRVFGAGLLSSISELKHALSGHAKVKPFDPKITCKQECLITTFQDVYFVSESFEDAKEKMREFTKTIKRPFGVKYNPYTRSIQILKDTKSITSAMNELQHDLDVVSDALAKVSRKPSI
Particularly, the synthesized compound was dissolved in DMSO, which was added to a 96-well microplate (10 ? /well), to which TPH1 enzyme was added (40 ? /well). Then, TPH1 reaction solution was added to the microplate (50 ? /well) and the microplate was shaded with aluminum foil. The microplate was transferred to 4° C. environment, shaken carefully and incubated for 4 hours. After adding a quench solution to the microplate (10 ? /well), the TPH1 activity was measured by reading the degree of fluorescence color development with a Flexstation3 microplate reader. At this time, the excitation spectrum was 300 nm and the emission spectrum was 360 nm.

The test system of series [3] is DSS colitis. Briefly: DSS colitis mouse model: colon length and colon looseness. In kind it is in vivo, C57BL/6J mice. To be noted: 100 mg/kg and 300 mg/kg oral, 7 days, 2.5% DSS. As for the experimental part:
C57BL/6J (Jackson Lab) male mice weighing 25±2 g at 9 weeks of age were used, and all the mice were fed freely by providing standard experimental feed. The compound of Example 53 and LX1606 were dissolved in 0.25% methylcellulose (MC) solution, which was orally administered to mice at the dose of 100 and 300 mg/kg/time using a 1 mL syringe. The compound of Example 53 and LX1606 were administered for 7 days, starting one day prior to dextran sulfate sodium (DSS) administration. Before and after the administration, the samples of colon tissue were collected from each mouse treated with the compound of Example 53 or the control drug (LX1606) to confirm clinical symptoms. Data are expressed as mean±standard error of mean (SEM), and all statistical analyses were performed using GraphPad Prism (version 5.0, GraphPad Software, La Jolla, Calif.). Differences in mean between groups were statistically analyzed by two-way analysis of variance (ANOVA) and multiple comparison tests to reveal the differences between the experimental groups. P<0.05 was considered statistically significant.
Enteritis was induced in mice by freely drinking 2.5% DSS (molecular weight: 36,000-50,000 M.Wt; manufactured by MP Biomedicals, Canada) aqueous solution for 6 days, and the body weight, stiffness of the stool, and the presence or absence of bloody stool were observed daily from the start of the administration. […]

The term IC50 denotes the concentration that inhibits the measured activity by half. A higher IC50 goes with a need for much substance.

Counter-ions that a name gives are not always drawn.

Regarding `CCOC(=O)[C@@H](N)CC1CC=C(c2cc(O[C@H](c3ccc(Cl)cc3-n3ccc(C)n3)C(F)(F)F)nc(N)n2)CC1` (stereo partly drawn) [Example 53, ethyl (2S)-2-amino-3-(4-(2-amino-6-((R)-1-(4-chloro-2-(3-methyl-1H-pyrazole-1-yl)phenyl)-2,2,2-trifluoroethoxy)pyrimidine-4-yl)cyclohex-3-ene-1-yl)propionate hippurate], in the series with DSS colitis [1], the colon permeability entry is reported as “lower permeability was observed on average”. In series [2], `Nc1nc(O[C@H](c2ccc(Cl)cc2C2=CCC(F)(F)CC2)C(F)(F)F)cc(C2=CCC(C[C@H](N)C(=O)O)CC2)n1` (stereo partly drawn) [Example 75, (2S)-2-amino-3-(4-(2-amino-6-((R)-1-(5-chloro-4′,4′difluoro-2′,3′,4′,5′-tetrahydro-[1,1′-biphenyl]-2-yl)-2,2,2-trifluoroethoxy)pyrimidine-4-yl)cyclohex-3-ene-1-yl)propionic acid hydrochloride] came in with a half-maximal inhibitory concentration (IC50) of 0.443 µM. Compound `Cc1ccn(-c2cc(Cl)ccc2[C@@H](Oc2cc(C3=CCC4(CC3)CNC(C(=O)O)C4)nc(N)n2)C(F)(F)F)n1` (stereo partly drawn) [Example 79, 8-(2-amino-6-((R)-1-(4-chloro-2-(3-methyl-1H-pyrazole-1-yl)phenyl)-2,2,2-trifluoroethoxy)pyrimidine-4-yl)-2-azaspiro[4.5]dec-7-ene-3-carboxylic acid hydrochloride] registered an IC50 in series [2] (hydrochloride) of 0.185 µM. Take `Cc1ccn(-c2cc(Cl)ccc2[C@@H](Oc2cc(C3=CCC4(CC3)CNC(C(=O)O)C4)nc(N)n2)C(F)(F)F)n1` (stereo partly drawn) [Example 80, 8-(2-amino-6-((R)-1-(4-chloro-2-(3-methyl-1H-pyrazole-1-yl)phenyl)-2,2,2-trifluoroethoxy)pyrimidine-4-yl)-2-azaspiro[4.5]dec-7-ene-3-carboxylic acid]: inhibition in series [2] was half-maximal at 0.194 µM (IC50). For `Nc1nc(O[C@H](c2ccc(Cl)cc2C2=CCOCC2)C(F)(F)F)cc(C2=CCC3(CC2)CNC(C(=O)O)C3)n1` (stereo partly drawn) [Example 83, 8-(2-amino-6-((R)-1-(4-chloro-2-(3,6-dihydro-2H-pyran-4-yl)phenyl)-2,2,2-trifluoroethoxy)pyrimidine-4-yl)-2-azaspiro[4.5]dec-7-ene-3-carboxylic acid hydrochloride], the IC50 in series [2] is 1.15 µM. Still for that read-out and setting: next, `Cc1ccn(-c2cc(Cl)ccc2[C@@H](Oc2ncnc3c(C4=CCC5(CC4)CNC(C(=O)O)C5)csc23)C(F)(F)F)n1` (stereo partly drawn) [Example 84, 8-(4-((R)-1-(4-chloro-2-(3-methyl-1H-pyrazole-1-yl)phenyl)-2,2,2-trifluoroethoxy)thieno[3,2-d]pyrimidine-7-yl)-2-azaspiro[4.5]dec-7-ene-3-carboxylic acid hydrochloride]: 0.307 µM; `Nc1nc(O[C@H](c2ccc(Cl)cc2C2=CCOCC2)C(F)(F)F)cc(C2=CCC(C[C@H](N)C(=O)O)CC2)n1` (stereo partly drawn) [Example 85, (2S)-2-amino-3-(4-(2-amino-6-((R)-1-(4-chloro-2-(3,6-dihydro-2H-pyran-4-yl)phenyl)-2,2,2-trifluoroethoxy)pyrimidine-4-yl)cyclohex-3-ene-1-yl)propionic acid]: 0.94 µM. Consider `COc1cccc(-c2ccc([C@@H](Oc3cc(C4=CCC5(CC4)CNC(C(=O)O)C5)nc(N)n3)C(F)(F)F)cc2)c1` (stereo partly drawn) [Example 87, 8-(2-amino-6-((R)-2,2,2-trifluoro-1-(3′-methoxy-[1,1′-biphenyl]-4-yl)ethoxy)pyrimidine-4-yl)-2-azaspiro[4.5]dec-7-ene-3-carboxylic acid hydrochloride], for which it took 0.741 µM to reach half-maximal inhibition in series [2] (hydrochloride) (IC50). As for `COc1cccc(-c2ccc([C@@H](Oc3cc(C4=CCC5(CC4)CNC(C(=O)O)C5)nc(N)n3)C(F)(F)F)cc2)c1` (stereo partly drawn) [Example 89, 8-(2-amino-6-((R)-2,2,2-trifluoro-1-(3′-methoxy-[1,1′-biphenyl]-4-yl)ethoxy)pyrimidine-4-yl)-2-azaspiro[4.5]dec-7-ene-3-carboxylic acid], in series [2], the 50% inhibitory concentration (IC50) was 0.409 µM. Same read-out and setting: next, `Cc1ccn(-c2cc(Cl)ccc2[C@@H](Oc2nc(N)nc3c(-c4ccc(C[C@H](N)C(=O)O)cc4)csc23)C(F)(F)F)n1` [Example 91, (S)-2-amino-3-(4-(2-amino-4-((R)-1-(4-chloro-2-(3-methyl-1H-pyrazole-1-yl)phenyl)-2,2,2-trifluoroethoxy)thieno[3,2-d]pyrimidine-7-yl)phenyl)propionic acid hydrochloride]: 0.208 µM; `Nc1nc(O[C@H](c2ccc(Cl)cc2C2=CCCOC2)C(F)(F)F)cc(C2=CCC3(CC2)CNC(C(=O)O)C3)n1` (stereo partly drawn) [Example 94, 8-(2-amino-6-((R)-1-(4-chloro-2-(5,6-dihydro-2H-pyran-3-yl)phenyl)-2,2,2-trifluoroethoxy)pyrimidine-4-yl)-2-azaspiro[4.5]dec-7-ene-3-carboxylic acid hydrochloride]: 0.209 µM.

In the case of `CCOC(=O)[C@@H](N)Cc1ccc(-c2cc(O[C@H](c3ccc(Cl)cc3-n3ccc(C)n3)C(F)(F)F)nc(N)n2)cc1` [LX1606, (2S)-2-Amino-3-[4-[2-amino-6-[[(1R)-1-[4-chloro-2-(3-methylpyrazol-1-yl)phenyl]-2,2,2-trifluoroethyl]oxy]pyrimidin-4-yl]phenyl]propionic acid ethyl ester], in the series on DSS colitis [3], the “colon length compared with vehicle group” value is on record as “not longer than that of the group treated with vehicle”.

Values taken from patent publication US11407763B2, “Tryptophan hydroxylase inhibitor and pharmaceutical composition including same” (GWANGJU INSTITUTE OF SCIENCE AND TECHNOLOGY, priority 2017, dated 2022).
